From US20250235460A1, “COMBINATION THERAPY USING GLUCOSE-DEPENDENT INSULINOTROPIC POLYPEPTIDE RECEPTOR ANTAGONIST COMPOUNDS AND GLP-1 RECEPTOR AGONIST COMPOUNDS” (Pfizer Inc., priority 2024, published 2025) come the findings set out here.

In assay [1] the target is human GLP-1R (Homo sapiens, UniProt P43220, L260F). Put plainly: CHO GLP-1R Clone C6 cAMP HTRF agonist assay (Assay 2, low receptor density). As to conditions: for EC50: geometric mean; for Emax: CHO GLP-1R clone C6, arithmetic mean, relative to saturating GLP-1 (1 μM). The format is cell-based. From the text: In Table 5 and Table 6, assay data are presented to two (2) significant figures as the geometric mean (EC50s) and arithmetic mean (Emax) based on the number of replicates listed (Number). A blank cell means there was no data for that Example or the Emax was not calculated.

In assay [2] the target is human GLP-1R (Homo sapiens, UniProt P43220, G168S). Put plainly: CHO GLP-1R Clone H6 cAMP HTRF agonist assay (Assay 1, high receptor density). It is filed as cell-based. As to conditions: for EC50: CHO GLP-1R clone H6, cAMP HTRF, geometric mean; for Emax: CHO GLP-1R clone H6, arithmetic mean, relative to saturating GLP-1 (1 μM), read-out: Assay 1 Emax (%). A digest of the protocol: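 Two significant figures are used throughout. Each EC50 is the geometric mean of its replicates, and each Emax is the arithmetic mean.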
human GLP-1R (Homo sapiens, UniProt P43220, G168S), sequence (P43220 24-463 G168S): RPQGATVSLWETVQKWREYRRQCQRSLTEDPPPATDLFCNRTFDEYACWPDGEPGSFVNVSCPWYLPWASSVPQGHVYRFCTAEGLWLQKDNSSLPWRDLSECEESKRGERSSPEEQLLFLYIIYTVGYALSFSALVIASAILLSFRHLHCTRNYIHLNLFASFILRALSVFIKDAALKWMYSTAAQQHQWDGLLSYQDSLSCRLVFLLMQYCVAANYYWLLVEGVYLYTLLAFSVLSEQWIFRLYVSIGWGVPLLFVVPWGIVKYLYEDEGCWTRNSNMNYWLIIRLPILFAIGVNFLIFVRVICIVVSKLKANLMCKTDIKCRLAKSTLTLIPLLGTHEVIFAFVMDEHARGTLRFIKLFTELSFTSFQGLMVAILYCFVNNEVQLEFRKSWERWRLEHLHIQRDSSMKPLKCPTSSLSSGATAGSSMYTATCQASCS

human GLP-1R (Homo sapiens, UniProt P43220, L260F), sequence (P43220 24-463 L260F): as the sequence (P43220 24-463 G168S) above, with S145G, L237F counted along it

On to `COCCn1c(CN2CCN(c3cccc(OCc4ccc(Cl)cc4F)n3)C[C@@H]2CO)nc2ccc(C(=O)O)cc21` [Compound 354B, 2-{[(2R)-4-{6-[(4-chloro-2-fluorobenzyl)oxy]pyridin-2-yl}-2-(hydroxymethyl)piperazin-1-yl]methyl}-1-(2-methoxyethyl)-1H-benzimidazole-6-carboxylic acid], for which the EC50 at human GLP-1R [1] (CHO GLP-1R clone C6, cAMP HTRF) was 1500 nM; on human GLP-1R [2], 94 nM. The maximal response (Emax) at human GLP-1R [1] was determined as 69%; at human GLP-1R [2], 78%.

`O=C(O)c1ccc2nc(CN3CCC(c4cccc(OCc5ccc(Cl)cc5F)n4)CC3)n(CCC(F)(F)F)c2c1` [Compound 346B, 2-[(4-{6-[(4-chloro-2-fluorobenzyl)oxy]pyridin-2-yl}piperidin-1-yl)methyl]-1-(3,3,3-trifluoropropyl)-1H-benzimidazole-6-carboxylic acid]: the midpoint of the response at human GLP-1R [1] (CHO GLP-1R clone C6, cAMP HTRF), the EC50, lay at 540 nM. On human GLP-1R [2], the EC50 was found to be 21 nM and the Emax is 79%. The compound `N#Cc1ccc(COc2cccc(C3CCN(Cc4nc5ccc(C(=O)O)cc5n4C[C@@H]4CCO4)CC3)n2)c(F)c1` [Compound 110B, 2-[(4-{6-[(4-cyano-2-fluorobenzyl)oxy]pyridin-2-yl}piperidin-1-yl)methyl]-1-[(2S)-oxetan-2-ylmethyl]-1H-benzimidazole-6-carboxylic acid] showed an Emax on human GLP-1R [1] of 82%. Regarding `Cn1cnnc1Cn1c(CN2CCC(c3cccc(OCc4ccc(C#N)cc4F)n3)CC2)nc2ccc(C(=O)O)cc21` [Compound 188B, 2-[(4-{6-[(4-cyano-2-fluorobenzyl)oxy]pyridin-2-yl}piperidin-1-yl)methyl]-1-[(4-methyl-4H-1,2,4-triazol-3-yl)methyl]-1H-benzimidazole-6-carboxylic acid], the EC50 at human GLP-1R [1] (CHO GLP-1R clone C6, cAMP HTRF) stood at 38 nM; at human GLP-1R [2], 2.4 nM. Further, the Emax stood at 83% on human GLP-1R [1] and 71% at human GLP-1R [2]. As to `N#Cc1ccc(COc2cccc(C3CCN(Cc4nc5ccc(C(=O)O)cc5n4C[C@@H]4CCOC4)CC3)n2)c(F)c1` [Compound 126B, 2-[(4-{6-[(4-cyano-2-fluorobenzyl)oxy]pyridin-2-yl}piperidin-1-yl)methyl]-1-[(3S)-tetrahydrofuran-3-ylmethyl]-1H-benzimidazole-6-carboxylic acid], the Emax at human GLP-1R [1] turned out to be 90%.

On human GLP-1R [2], `O=C(O)c1ccc2nc(CN3CCC(c4cccc(OCc5ccc(Cl)cc5F)n4)CC3)n(Cc3cnoc3)c2c1` [Compound 270B, 2-[(4-{6-[(4-chloro-2-fluorobenzyl)oxy]pyridin-2-yl}piperidin-1-yl)methyl]-1-(1,2-oxazol-4-ylmethyl)-1H-benzimidazole-6-carboxylic acid] registered a concentration giving a half-maximal response (EC50) of over 20000 nM. As to `Cc1n[nH]c(CCn2c(CN3CCC(c4cccc(OCc5ccc(Cl)cc5F)n4)CC3)nc3ccc(C(=O)O)cc32)n1` [Compound 341B, 2-[(4-{6-[(4-chloro-2-fluorobenzyl)oxy]pyridin-2-yl}piperidin-1-yl)methyl]-1-[2-(3-methyl-1H-1,2,4-triazol-5-yl)ethyl]-1H-benzimidazole-6-carboxylic acid], at human GLP-1R [2], the midpoint of the response, the EC50, lay at 250 nM and the Emax was found to be 64%. For `COCCn1c(CN2CCC(c3cccc(OCc4ccc(C#N)cc4)n3)CC2)nc2ccc(C(=O)O)c(F)c21` [Compound 169B, 2-[(4-{6-[(4-cyanobenzyl)oxy]pyridin-2-yl}piperidin-1-yl)methyl]-7-fluoro-1-(2-methoxyethyl)-1H-benzimidazole-6-carboxylic acid], in that order: 1200 nM and 78%. In turn, `O=C(O)c1ccc2nc(CN3CCC(c4cccc5c4O[C@H](c4ccc(Cl)cc4F)O5)CC3)n(C[C@@H]3CCO3)c2c1` [Compound 4B, Ammonium 2-({4-[(2R)-2-(4-chloro-2-fluorophenyl)-1,3-benzodioxol-4-yl]piperidin-1-yl}methyl)-1-[(2S)-oxetan-2-ylmethyl]-1H-benzimidazole-6-carboxylate] registered an EC50 on human GLP-1R [1] (CHO GLP-1R clone, low receptor density, cAMP HTRF) of over 20000 nM. Take `CCn1ccnc1Cn1c(CN2CCC(c3cccc(OCc4ccc(Cl)cc4F)n3)CC2)nc2ccc(C(=O)O)cc21` [Compound 314B, 2-[(4-{6-[(4-chloro-2-fluorobenzyl)oxy]pyridin-2-yl}piperidin-1-yl)methyl]-1-[(1-ethyl-1H-imidazol-2-yl)methyl]-1H-benzimidazole-6-carboxylic acid]: on human GLP-1R [2], the EC50 is 390 nM and the Emax came to 69%.

At human GLP-1R [1], `N#Cc1ccc(COc2nc(C3CCN(Cc4nc5ccc(C(=O)O)cc5n4C[C@@H]4CCCO4)CC3)ccc2F)cc1` [Compound 128B, 2-[(4-{6-[(4-cyanobenzyl)oxy]-5-fluoropyridin-2-yl}piperidin-1-yl)methyl]-1-[(2S)-tetrahydrofuran-2-ylmethyl]-1H-benzimidazole-6-carboxylic acid] registered an Emax of 86%. As to `COC[C@H](C)n1c(CN2CCC(c3cccc(OCc4ccc(Cl)cc4F)n3)CC2)nc2ccc(C(=O)O)cc21` [Compound 320B, 2-[(4-{6-[(4-chloro-2-fluorobenzyl)oxy]pyridin-2-yl}piperidin-1-yl)methyl]-1-[(2S)-1-methoxypropan-2-yl]-1H-benzimidazole-6-carboxylic acid], on human GLP-1R [2], a half-maximal response (EC50) required 1100 nM and the Emax amounted to 65%.

Take `Cn1c(CN2CCC(c3cccc(OCc4ccc(C#N)cc4)n3)CC2)nc2ccc(C(=O)O)cc21` [Compound 234B, 2-[(4-{6-[(4-cyanobenzyl)oxy]pyridin-2-yl}piperidin-1-yl)methyl]-1-methyl-1H-benzimidazole-6-carboxylic acid]: at human GLP-1R [2], the EC50 is 290 nM and the Emax was 64%. As to `O=C(O)c1cnc2nc(CN3CCC(c4cccc(OCc5ccc(Cl)cc5F)n4)CC3)n(CC(F)(F)F)c2c1` [Compound 212B, 2-[(4-{6-[(4-chloro-2-fluorobenzyl)oxy]pyridin-2-yl}piperidin-1-yl)methyl]-1-(2,2,2-trifluoroethyl)-1H-imidazo[4,5-b]pyridine-6-carboxylic acid], on human GLP-1R [2], the EC50 is 190 nM and the Emax was determined as 71%. Turning to `N#Cc1ccc(COc2cccc(C3CCN(Cc4nc5ccc(C(=O)O)cc5n4CC4CCO4)CC3)n2)c(F)c1` (stereo not shown) [Compound 109B, 2-[(4-{6-[(4-cyano-2-fluorobenzyl)oxy]pyridin-2-yl}piperidin-1-yl)methyl]-1-[oxetan-2-ylmethyl]-1H-benzimidazole-6-carboxylic acid], on human GLP-1R [2], the Emax was 83%. For `Cn1c(CN2CCC(c3cccc(OCc4ccc(F)cc4F)n3)CC2)nc2ccc(C(=O)O)cc21` [Compound 223B, 2-[(4-{6-[(2,4-difluorobenzyl)oxy]pyridin-2-yl}piperidin-1-yl)methyl]-1-methyl-1H-benzimidazole-6-carboxylic acid], on human GLP-1R [2], the concentration giving a half-maximal response (EC50) came out at 170 nM and the Emax stood at 69%. `Cc1cc(Cn2c(CN3CCC(c4cccc(OCc5ccc(Cl)cc5F)n4)CC3)nc3ccc(C(=O)O)cc32)no1` [Compound 310B, 2-[(4-{6-[(4-chloro-2-fluorobenzyl)oxy]pyridin-2-yl}piperidin-1-yl)methyl]-1-[(5-methyl-1,2-oxazol-3-yl)methyl]-1H-benzimidazole-6-carboxylic acid]: at human GLP-1R [2], the EC50 stood at 320 nM and the Emax was found to be 79%. On human GLP-1R [2], `O=C(O)c1ccc2nc(CN3CCC(c4cccc(OCc5ccc(Cl)cc5F)n4)CC3)n([C@@H]3CCOC3)c2c1` [Compound 268B, 2-[(4-{6-[(4-chloro-2-fluorobenzyl)oxy]pyridin-2-yl}piperidin-1-yl)methyl]-1-[(3R)-tetrahydrofuran-3-yl]-1H-benzimidazole-6-carboxylic acid] came in with an EC50 of over 20000 nM. Regarding `COCCn1c(CN2CCN(c3nc(OCc4ccc(Cl)cc4F)ccc3F)C[C@@H]2C)nc2ccc(C(=O)O)cc21` [Compound 180B, 2-{[(2S)-4-{6-[(4-chloro-2-fluorobenzyl)oxy]-3-fluoropyridin-2-yl}-2-methylpiperazin-1-yl]methyl}-1-(2-methoxyethyl)-1H-benzimidazole-6-carboxylic acid], on human GLP-1R [2], the EC50 is over 17000 nM and the maximal response (Emax) amounted to 100%. The matching figures for `COCCn1c(CN2CCN(c3cccc(OCc4ccc(C#N)cc4F)n3)C[C@@H]2C)nc2ccc(C(=O)O)cc21` [Compound 173B, 2-{[(2S)-4-{6-[(4-cyano-2-fluorobenzyl)oxy]pyridin-2-yl}-2-methylpiperazin-1-yl]methyl}-1-(2-methoxyethyl)-1H-benzimidazole-6-carboxylic acid]: 2700 nM and 85%. `C[C@H]1CN(c2cccc(OCc3ccc(Cl)cc3F)n2)CCN1Cc1nc2ccc(C(=O)O)cc2n1Cc1ncco1` [Compound 148B, 2-{[(2S)-4-{6-[(4-chloro-2-fluorobenzyl)oxy]pyridin-2-yl}-2-methylpiperazin-1-yl]methyl}-1-(1,3-oxazol-2-ylmethyl)-1H-benzimidazole-6-carboxylic acid]: at human GLP-1R [2], the EC50 amounted to 340 nM and the maximal response (Emax) was 74%.

With `CC(C)n1cnnc1Cn1c(CN2CCC(c3cccc(OCc4ccc(Cl)cc4F)n3)CC2)nc2ccc(C(=O)O)cc21` [Compound 236B, 2-[(4-{6-[(4-chloro-2-fluorobenzyl)oxy]pyridin-2-yl}piperidin-1-yl)methyl]-1-{[4-(propan-2-yl)-4H-1,2,4-triazol-3-yl]methyl}-1H-benzimidazole-6-carboxylic acid], at human GLP-1R [2], the EC50 is 1300 nM and the Emax came out at 79%. Compound `N#Cc1ccc(COc2nc(C3CCN(Cc4nc5ccc(C(=O)O)cc5n4C[C@H]4CCCO4)CC3)ccc2F)cc1` [Compound 129B, 2-[(4-{6-[(4-cyanobenzyl)oxy]-5-fluoropyridin-2-yl}piperidin-1-yl)methyl]-1-[(2R)-tetrahydrofuran-2-ylmethyl]-1H-benzimidazole-6-carboxylic acid] registered an Emax at human GLP-1R [1] of 98%.
